Consider 4 compounds from patent publication US20080015222A1, “New Heterocyclic Amides” (ASTRAZENECA AB, priority 2004, published 2008).

The target of this test is T1, hVR1 (Homo sapiens, UniProt Q8NER1).
T1 construct: expressed in transfected cells
Briefly: hVR1 FLIPR (Fluorometric Image Plate Reader) screening assay, IC50 determination. In kind it is cell-based. The conditions noted are these: CHO cells stably expressing hVR1. On the procedure: 1. hVR1FLIPR (Fluorometric Image Plate Reader) Screening Assay
Transfected CHO cells, stably expessing hVR1 (15,000 cells/well) are seeded in 50 ul media in a black clear bottom 384 plate (Greiner) and grown in a humidified incubator (37° C., 2% CO2), 24-30 hours prior to experiment.
Subsequently, the media is removed from the cell plate by inversion and 2 μM Fluo-4 is added using a multidrop (Labsystems). Following the 40 minutes dye incubation in the dark at 37° C. and 2% CO2, the extracellular dye present is washed away using an EMBLA (Scatron), leaving the cells in 40 ul of assay buffer (1×HBSS, 10 mM D-Glucose, 1 mM CaCl2, 10 mM HEPES, 10×7.5% NaHCO3 and 2.5 mM Probenecid).
FLIPR Assay—IC50 Determination Protocol
For IC50 determinations the fluorescence is read using FLIPR filter 1 (em […]). A cellular baseline recording is taken for 30 seconds, followed by a 20 μl addition of 10, titrated half-log concentrations of the test compound, yielding cellular concentration ranging from 3 μM to 0.1 nM. Data is collected every 2 seconds for a further 5 minutes prior to the addition of a VR1 agonist solution: either 50 nM solution of capsaicin or MES (2-[N-morpholino]ethanesulfonic acid) buffer (pH 5.2), by the FLIPR pipettor. The FLIPR continues to collect data for a further 4 minutes. Compounds having antagonistic properties against the hVR1 will inhibit the increase in intracellular calcium in response to the capsaicin addition. This consequently leading to a reduction in fluorescence signal and providing a reduced fluorescence reading, compared with no compound, buffer controls. Data is exported by the FLIPR program as a sum of fluorescence calculated under the curve upon the addition of capsaicin. Maximum inhibition, Hill slope and IC50 data for each compound are generated.

Where [1] appears, read: agonist low pH (MES buffer pH 5.2).

T1 sequence (Q8NER1 whole entry): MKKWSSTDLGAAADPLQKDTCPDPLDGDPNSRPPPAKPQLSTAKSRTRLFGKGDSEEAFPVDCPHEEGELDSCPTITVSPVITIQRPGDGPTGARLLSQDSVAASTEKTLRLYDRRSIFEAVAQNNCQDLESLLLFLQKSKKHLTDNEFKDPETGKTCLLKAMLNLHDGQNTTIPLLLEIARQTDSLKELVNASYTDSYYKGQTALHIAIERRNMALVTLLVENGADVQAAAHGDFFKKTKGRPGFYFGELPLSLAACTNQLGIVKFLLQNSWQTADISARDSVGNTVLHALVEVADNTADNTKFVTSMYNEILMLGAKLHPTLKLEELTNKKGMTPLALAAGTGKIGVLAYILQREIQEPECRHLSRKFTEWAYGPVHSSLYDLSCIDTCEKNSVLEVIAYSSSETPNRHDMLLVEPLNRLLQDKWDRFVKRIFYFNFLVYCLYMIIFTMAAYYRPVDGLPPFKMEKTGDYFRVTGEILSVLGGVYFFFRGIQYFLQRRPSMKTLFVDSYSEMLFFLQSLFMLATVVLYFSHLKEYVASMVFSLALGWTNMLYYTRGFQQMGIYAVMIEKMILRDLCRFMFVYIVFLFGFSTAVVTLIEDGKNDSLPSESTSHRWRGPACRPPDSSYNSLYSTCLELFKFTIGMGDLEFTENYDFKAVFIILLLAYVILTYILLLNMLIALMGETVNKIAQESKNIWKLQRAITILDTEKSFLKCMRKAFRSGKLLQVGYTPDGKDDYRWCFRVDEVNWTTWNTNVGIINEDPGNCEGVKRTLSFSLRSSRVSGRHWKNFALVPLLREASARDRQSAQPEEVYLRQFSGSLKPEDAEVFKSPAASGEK

Broadly, the IC50 is the midpoint of a concentration-inhibition curve. The low end stands for inhibition by little substance, the high end for a need for much substance. Turning to `COCCOc1cc(NC(=O)Cn2cnc3cccc([N+](=O)[O-])c32)cc(OC)c1` [Example 10, N-[3-Methoxy-5-(2-methoxyethoxy)phenyl]-2-(7-nitro-1H-benzimidazol-1-yl)acetamide], the IC50 reads like this: (agonist capsaicin (50 nM)) 22 nM; under setting [1], 45 nM.

Consider `O=C(Cn1cnc2cccc([N+](=O)[O-])c21)Nc1cc(F)c(F)c(F)c1` [Example 14, 2-(7-Nitro-1H-benzimidazol-1-yl)-N-(3,4,5-trifluorophenyl)acetamide], for which the IC50 runs as follows: (agonist capsaicin (50 nM)) 48 nM; under setting [1], 108 nM.

`COc1cc(NC(=O)Cn2cnc3cccc(C(C)=O)c32)cc(OC)c1` [Example 35, 2-(7-Acetyl-1H-benzimidazol-1-yl)-N-(3,5-dimethoxyphenyl)acetamide]: the IC50 is, setting by setting: (agonist capsaicin (50 nM)) 518 nM; under setting [1], 508 nM.

Turning to `COc1cc(NC(=O)Cn2cnc3cccc(C(C)=O)c32)cc(C(F)(F)F)c1` [Example 32, 2-(7-Acetyl-1H-benzimidazol-1-yl)-N-[3-methoxy-5-(trifluoromethyl)phenyl]acetamide], the IC50 amounted to 77 nM (agonist capsaicin (50 nM)) and 53 nM under setting [1].
